Test results as given in ChEMBL document CHEMBL1201862, “PubChem BioAssay data set” (2004).
Active and inactive are the calls of the source.

Experiments:
[1] = inhibition of ARNT PAS-B/TACC3 complex formation – biochemical, AlphaScreen, cherry-picked samples, confirmation (AID 651703); assay type: functional, Homo sapiens;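 note: His-tagged ARNT PAS-B domain paired with GST-TACC3 E629A dimer coactivator fragment; potency of inhibitors that break up the complex and lower AlphaScreen signal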
[2] = Fluorescence-based cell-based high throughput dose response assay for inhibitors of the interaction of nucleotide-binding oligomerization domain containing 2 (NOD2) and the receptor-interacting serine-threonine kinase 2 (RIPK2).; assay type: functional; conditions: Homo sapiens
Fatty acid synthase [3] = biological target: T1, Fatty acid synthase (Homo sapiens, UniProt P49327); assay: inhibition of human FAS-TE enzyme activity – biochemical, endpoint fluorescence intensity, uHTS hits, dose response (AID 624327); assay type: functional;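 note: fluorescence from hydrolysis of an O-methyl fluorescein acyl ester substrate by the enzyme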
T1 sequence (P49327 whole entry): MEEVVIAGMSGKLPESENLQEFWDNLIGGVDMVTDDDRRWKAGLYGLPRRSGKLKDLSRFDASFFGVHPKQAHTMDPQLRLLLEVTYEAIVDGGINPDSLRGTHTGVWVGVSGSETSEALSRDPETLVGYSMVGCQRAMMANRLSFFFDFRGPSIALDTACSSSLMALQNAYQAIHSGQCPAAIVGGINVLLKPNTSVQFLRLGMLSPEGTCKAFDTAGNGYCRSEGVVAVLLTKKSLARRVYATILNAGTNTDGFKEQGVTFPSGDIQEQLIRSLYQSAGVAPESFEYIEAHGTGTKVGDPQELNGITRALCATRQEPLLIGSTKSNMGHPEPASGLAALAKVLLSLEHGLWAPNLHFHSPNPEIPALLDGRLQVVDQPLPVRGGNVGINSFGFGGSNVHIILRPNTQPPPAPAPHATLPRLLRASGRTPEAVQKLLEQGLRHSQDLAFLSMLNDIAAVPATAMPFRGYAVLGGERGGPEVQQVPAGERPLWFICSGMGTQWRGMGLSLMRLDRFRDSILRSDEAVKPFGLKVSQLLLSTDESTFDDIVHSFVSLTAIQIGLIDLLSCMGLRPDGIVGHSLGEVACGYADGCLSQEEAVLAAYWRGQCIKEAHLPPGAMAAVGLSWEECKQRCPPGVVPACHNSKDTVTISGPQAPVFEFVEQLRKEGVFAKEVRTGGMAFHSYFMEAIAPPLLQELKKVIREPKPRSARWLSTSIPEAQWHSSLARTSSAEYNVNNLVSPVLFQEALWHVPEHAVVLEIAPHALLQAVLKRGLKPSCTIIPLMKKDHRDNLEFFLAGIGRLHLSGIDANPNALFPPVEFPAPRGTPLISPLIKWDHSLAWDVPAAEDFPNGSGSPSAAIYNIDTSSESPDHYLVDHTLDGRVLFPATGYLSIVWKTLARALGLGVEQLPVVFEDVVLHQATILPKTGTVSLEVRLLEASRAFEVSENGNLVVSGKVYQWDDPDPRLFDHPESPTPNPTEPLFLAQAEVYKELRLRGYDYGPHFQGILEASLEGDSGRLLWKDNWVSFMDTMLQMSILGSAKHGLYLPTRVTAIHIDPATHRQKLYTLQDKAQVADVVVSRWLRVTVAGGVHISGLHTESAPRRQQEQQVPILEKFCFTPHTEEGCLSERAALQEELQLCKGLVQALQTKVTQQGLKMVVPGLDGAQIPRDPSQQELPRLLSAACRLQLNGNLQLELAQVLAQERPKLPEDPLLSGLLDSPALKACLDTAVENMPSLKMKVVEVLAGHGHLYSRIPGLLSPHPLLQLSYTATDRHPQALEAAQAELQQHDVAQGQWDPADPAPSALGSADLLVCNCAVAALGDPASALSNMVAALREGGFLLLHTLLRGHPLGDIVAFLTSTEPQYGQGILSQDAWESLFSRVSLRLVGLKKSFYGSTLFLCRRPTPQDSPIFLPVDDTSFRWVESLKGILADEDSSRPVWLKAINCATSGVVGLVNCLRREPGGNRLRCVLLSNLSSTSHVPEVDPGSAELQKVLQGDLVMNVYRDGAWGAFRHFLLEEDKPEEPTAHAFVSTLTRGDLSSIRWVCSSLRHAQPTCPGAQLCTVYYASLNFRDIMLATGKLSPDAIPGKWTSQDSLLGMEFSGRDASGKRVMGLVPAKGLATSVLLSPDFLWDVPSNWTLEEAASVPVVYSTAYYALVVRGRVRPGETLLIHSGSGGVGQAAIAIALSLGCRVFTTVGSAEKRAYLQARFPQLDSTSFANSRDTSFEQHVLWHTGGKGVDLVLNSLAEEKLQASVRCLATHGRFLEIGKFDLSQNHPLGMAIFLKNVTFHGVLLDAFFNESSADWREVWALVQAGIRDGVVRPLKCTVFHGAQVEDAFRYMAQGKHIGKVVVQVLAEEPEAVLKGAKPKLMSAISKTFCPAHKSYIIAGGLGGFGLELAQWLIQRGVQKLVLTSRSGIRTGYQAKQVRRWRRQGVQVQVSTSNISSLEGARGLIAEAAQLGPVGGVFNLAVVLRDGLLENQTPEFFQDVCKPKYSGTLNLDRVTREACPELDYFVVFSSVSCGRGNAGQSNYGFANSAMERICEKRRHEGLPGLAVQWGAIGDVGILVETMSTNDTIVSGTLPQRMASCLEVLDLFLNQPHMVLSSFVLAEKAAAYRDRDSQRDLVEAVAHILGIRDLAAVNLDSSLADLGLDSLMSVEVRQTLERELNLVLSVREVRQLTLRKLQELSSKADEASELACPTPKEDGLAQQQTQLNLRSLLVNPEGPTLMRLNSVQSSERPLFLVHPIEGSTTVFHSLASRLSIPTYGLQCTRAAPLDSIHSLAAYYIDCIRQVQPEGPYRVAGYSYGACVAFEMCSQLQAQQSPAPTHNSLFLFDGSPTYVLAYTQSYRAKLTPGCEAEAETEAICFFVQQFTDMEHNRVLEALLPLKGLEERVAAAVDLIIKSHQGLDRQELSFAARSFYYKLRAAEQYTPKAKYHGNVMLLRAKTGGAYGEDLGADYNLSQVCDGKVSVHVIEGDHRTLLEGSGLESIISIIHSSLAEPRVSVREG

Fatty acid synthase [4] = biological target: T1, Fatty acid synthase; assay: inhibition of human FAS-TE enzyme activity – biochemical, kinetic fluorescence intensity, dose response (AID 624326); assay type: functional;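 note: rate of fluorescence rise from hydrolysis of a fluorogenic O-methyl fluorescein ester substrate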
Beta Lactamase = Beta Lactamase (Pseudomonas aeruginosa, UniProt Q932Y6); assay: BLA reporter interference, concentration series – BLA reporter cells, FRET fluorescence, artefact control for NOD2-RIPK2 interaction inhibitor project, dose response (AID 651552); assay type: functional, cell-based
Beta Lactamase, sequence (Q932Y6 whole entry): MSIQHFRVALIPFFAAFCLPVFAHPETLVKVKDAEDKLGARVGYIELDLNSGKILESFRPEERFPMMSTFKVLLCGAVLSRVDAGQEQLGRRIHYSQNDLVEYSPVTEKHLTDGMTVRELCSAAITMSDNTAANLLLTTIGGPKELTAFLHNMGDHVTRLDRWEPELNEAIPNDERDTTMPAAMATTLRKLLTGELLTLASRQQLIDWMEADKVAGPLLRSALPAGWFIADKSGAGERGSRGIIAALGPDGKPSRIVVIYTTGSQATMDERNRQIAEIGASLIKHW

[5] = rise of 4N DNA cells, HeLa – IC50, dose response (AID 1117351); assay type: functional, cell-based
[6] = viability loss in HEK293 cells – cell-based, plate reader, cherry-picked samples, cytotoxicity control, dose response (AID 743446); assay type: functional
[7] = RKO cell viability reduction, dose response, CellTiter-Glo luminescence (AID 1117322); assay type: functional
[8] = SNU-C1 cell viability reduction, dose response, CellTiter-Glo luminescence (AID 1117323); assay type: functional, cell-based
[9] = HCT116 cell viability decrease, GSK3B pretreatment – CellTiter-Glo, IC50, dose response (AID 1117339); assay type: functional; conditions: HCT-116
[10] = CellTiter-Glo luminescence survival assay, SW480 colon tumor line, concentration-response curve, half-maximal inhibitory concentration (AID 1117338); assay type: functional
BJ [11] = assay: BJ-TERT-LT-ST fibroblast viability loss – cell-based, RAS-independent, luminescence, dose response (AID 1935); assay type: functional; conditions: Homo sapiens;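 note: BJ fibroblasts immortalized with TERT plus LT and ST oncogenes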
[12] = biological target: Photoreceptor-specific nuclear receptor (Homo sapiens, UniProt Q9Y5X4); assay type: functional, cell-based;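 note: CHO-S cells with Gal4-NCOR and VP16-NR2E3 two-hybrid luciferase reporter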
Photoreceptor-specific nuclear receptor, sequence (Q9Y5X4 whole entry, the tested form may be a part): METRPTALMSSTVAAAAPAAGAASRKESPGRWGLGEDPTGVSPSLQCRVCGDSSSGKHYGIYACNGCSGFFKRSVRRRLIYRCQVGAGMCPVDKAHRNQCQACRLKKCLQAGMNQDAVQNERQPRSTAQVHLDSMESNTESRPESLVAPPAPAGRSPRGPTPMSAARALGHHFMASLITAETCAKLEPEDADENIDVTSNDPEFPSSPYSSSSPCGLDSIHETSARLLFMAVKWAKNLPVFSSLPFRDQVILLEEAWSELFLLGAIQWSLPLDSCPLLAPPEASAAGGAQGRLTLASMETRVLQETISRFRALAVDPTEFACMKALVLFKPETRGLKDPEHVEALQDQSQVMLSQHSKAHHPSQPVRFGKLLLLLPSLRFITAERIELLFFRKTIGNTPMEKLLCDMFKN

[13] = blockade of melanocortin 4 receptor signaling – cell-based, plate reader, cherry pick, counter-screen for LGR2 antagonist project, dose response (AID 743444); assay type: functional;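 note: transfected HEK 293 cells stimulated with alpha-MSH peptide; potency of inhibitors of the alpha-MSH evoked signal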
[14] = cytotoxicity toward Colo320 cells – cell-based, CellTiter-Glo luminescence, IC50, dose response (AID 1117334); assay type: functional; conditions: COLO 320
[15] = Reduced DLD-1 viability, concentration-response, CellTiter-Glo luminescence (AID 1117352); assay type: functional
BJ [16] = assay: cells; assay type: functional, cell-based; conditions: Homo sapiens
[17] = fluconazole-exposed Candida albicans growth modulators – fluorescence, retest, confirmation (AID 2467); assay type: functional, cell-based
[18] = cytotoxicity toward HCT116 cells – cell-based, CellTiter-Glo luminescence, IC50, dose response (AID 1117332); assay type: functional; conditions: HCT-116
Nonstructural protein 1 = Nonstructural protein 1 (Influenza A virus, UniProt Q194T2); assay type: functional, Influenza A virus (A/California/07/2009(H1N1))
Nonstructural protein 1, sequence (Q194T2 whole entry): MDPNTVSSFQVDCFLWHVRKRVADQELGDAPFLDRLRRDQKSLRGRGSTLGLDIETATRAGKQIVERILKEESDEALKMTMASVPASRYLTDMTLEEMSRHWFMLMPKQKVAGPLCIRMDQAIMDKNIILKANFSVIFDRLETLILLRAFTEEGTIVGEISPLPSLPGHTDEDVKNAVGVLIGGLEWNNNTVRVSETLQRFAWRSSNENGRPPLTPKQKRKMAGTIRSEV

BJ [19] = assay: BJ-TERT fibroblast viability loss – cell-based, RAS-independent, luminescence, dose response (AID 1933); assay type: functional; conditions: Homo sapiens
[20] = rise of 2N DNA cells, HeLa – IC50, dose response (AID 1117349); assay type: functional, cell-based
[21] = biological target: Heat shock protein HSP 90-alpha (Homo sapiens, UniProt P07900); assay type: functional, organism-based
[22] = A549 cell cytotoxicity, dose response, cytotoxicity control, plate reader, cherry-pick, antagonist series (AID 743412); assay type: functional, cell-based
[23] = biological target: T2, Replicative DNA helicase DnaB (Mycobacterium tuberculosis, UniProt P9WMR3); assay: DnaB intein splicing inhibitors, dose response, biochemical, cell-free fluorescence (AID 449749); assay type: functional
T2 sequence (P9WMR3 whole entry): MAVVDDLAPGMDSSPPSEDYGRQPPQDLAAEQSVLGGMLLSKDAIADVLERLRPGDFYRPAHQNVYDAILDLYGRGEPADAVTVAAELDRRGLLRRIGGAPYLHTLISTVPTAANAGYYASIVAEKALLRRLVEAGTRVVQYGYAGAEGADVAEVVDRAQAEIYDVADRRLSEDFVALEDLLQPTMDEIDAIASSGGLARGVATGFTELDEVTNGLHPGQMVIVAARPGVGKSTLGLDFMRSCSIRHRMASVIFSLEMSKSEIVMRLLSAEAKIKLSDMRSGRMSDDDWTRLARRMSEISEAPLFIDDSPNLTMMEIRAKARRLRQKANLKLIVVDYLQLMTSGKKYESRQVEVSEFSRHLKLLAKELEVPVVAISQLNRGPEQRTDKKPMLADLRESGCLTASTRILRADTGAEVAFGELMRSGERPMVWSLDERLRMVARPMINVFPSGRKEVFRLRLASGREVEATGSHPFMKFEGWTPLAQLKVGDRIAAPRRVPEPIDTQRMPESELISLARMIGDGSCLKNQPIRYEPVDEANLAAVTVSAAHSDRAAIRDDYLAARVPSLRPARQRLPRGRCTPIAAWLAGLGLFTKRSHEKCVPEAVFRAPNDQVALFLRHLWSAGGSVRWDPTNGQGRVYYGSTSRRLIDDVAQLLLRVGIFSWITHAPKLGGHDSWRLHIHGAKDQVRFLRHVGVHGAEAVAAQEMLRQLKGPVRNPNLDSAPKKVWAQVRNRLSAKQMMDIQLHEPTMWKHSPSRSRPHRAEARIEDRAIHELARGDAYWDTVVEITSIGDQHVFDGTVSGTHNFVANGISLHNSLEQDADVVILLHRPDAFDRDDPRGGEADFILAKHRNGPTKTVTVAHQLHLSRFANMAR

[24] = toxicity toward HepG2 liver cells – cell-based, plate reader, cherry-pick, antagonist series, cytotoxicity control, dose response (AID 743416); assay type: functional
[25] = viability loss in THP-1 monocytes – THP-1 cells, cytotoxicity control for Vif-APOBEC3G degradation inhibitor project, dose response (AID 1117359); assay type: functional; conditions: THP-1
Protein RecA = biological target: T3, Protein RecA (Mycobacterium tuberculosis, UniProt P9WHJ3); assay: Fluorescence Cell-Free Homogeneous Dose Retest to Identify Inhibitors of RecA-Intein Splicing Activity. [Related pubchem assays (depositor defined):AID2097, AID2223, AID489010, AID492950]; assay type: functional
T3 sequence (P9WHJ3 whole entry): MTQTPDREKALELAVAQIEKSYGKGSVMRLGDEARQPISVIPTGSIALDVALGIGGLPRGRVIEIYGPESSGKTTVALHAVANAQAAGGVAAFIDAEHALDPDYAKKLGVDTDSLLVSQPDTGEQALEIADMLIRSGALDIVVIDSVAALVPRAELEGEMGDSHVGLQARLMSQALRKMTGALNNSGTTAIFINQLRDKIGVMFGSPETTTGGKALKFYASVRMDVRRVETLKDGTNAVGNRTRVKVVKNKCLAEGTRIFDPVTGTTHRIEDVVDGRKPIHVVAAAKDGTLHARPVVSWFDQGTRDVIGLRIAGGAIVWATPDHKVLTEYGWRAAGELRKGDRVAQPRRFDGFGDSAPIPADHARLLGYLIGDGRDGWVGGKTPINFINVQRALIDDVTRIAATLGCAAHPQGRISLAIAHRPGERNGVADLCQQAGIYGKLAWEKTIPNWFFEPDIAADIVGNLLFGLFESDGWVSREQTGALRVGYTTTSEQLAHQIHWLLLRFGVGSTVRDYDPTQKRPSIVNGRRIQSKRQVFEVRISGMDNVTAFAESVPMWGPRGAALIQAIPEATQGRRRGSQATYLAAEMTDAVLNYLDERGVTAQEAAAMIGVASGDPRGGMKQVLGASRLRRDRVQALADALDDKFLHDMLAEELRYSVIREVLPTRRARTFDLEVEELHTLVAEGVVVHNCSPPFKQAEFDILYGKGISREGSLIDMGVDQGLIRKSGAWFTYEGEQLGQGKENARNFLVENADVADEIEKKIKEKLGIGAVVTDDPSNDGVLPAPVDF

Caspase-6 = biological target: T4, Caspase-6 (Homo sapiens, UniProt P55212); assay: inhibition of CASP6 peptide cleavage – biochemical, VEID-R110 fluorescence, cherry-pick, dose response (AID 720632)
T4 sequence (P55212 whole entry): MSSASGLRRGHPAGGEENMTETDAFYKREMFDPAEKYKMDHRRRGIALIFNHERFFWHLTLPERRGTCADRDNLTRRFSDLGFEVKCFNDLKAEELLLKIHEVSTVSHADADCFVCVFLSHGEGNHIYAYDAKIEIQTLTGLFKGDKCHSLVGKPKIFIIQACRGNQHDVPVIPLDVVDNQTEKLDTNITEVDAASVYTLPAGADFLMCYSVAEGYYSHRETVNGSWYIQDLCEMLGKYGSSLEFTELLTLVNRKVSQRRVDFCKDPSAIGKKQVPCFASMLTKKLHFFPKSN

[26] = DRD fibroblast viability loss – cell-based, non-viral oncogenic, luminescence, dose response (AID 1934); assay type: functional; conditions: Homo sapiens
[27] = NIH-3T3 fibroblast cytotoxicity, dose response, cytotoxicity control, cell-based, fluorescence, Alamar Blue, secondary assay (AID 2327); assay type: functional;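 note: NIH-3T3 mouse fibroblasts cultured with fluconazole at 8 µg/mL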
[28] = blockers of bursicon-stimulated LGR2 cAMP reporter – cell-based, HEK293, CRE-luciferase reporter, cherry pick, set 2, dose response (AID 743343); assay type: functional;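 note: transfected cells were stimulated with diluted bursicon conditioned medium after compound addition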
[29] = cytotoxicity toward HT-29 cells – cell-based, CellTiter-Glo luminescence, IC50, dose response (AID 1117330); assay type: functional

COC(=O)C(CC#Cc1ccc2c(c1)[C@]1(C(=O)N2)[C@H](c2ccc(OCCO)cc2)N2[C@H](c3ccccc3)[C@H](c3ccccc3)OC(=O)[C@H]2[C@@H]1C(=O)N1CCCCCCC1)C(=O)OC
AC50 [1]: 126 µM (active)

CCOC(=O)[C@]12Cc3c(cc(OC)c(OC)c3OC)[C@H]1N(C1CCCCC1)C(=O)c1ccccc12
IC50 [2]: 2.03 µM (active)
IC50 (Fatty acid synthase [3]): 8.89 µM (active)
IC50 (Fatty acid synthase [4]): 7.77 µM (active)
IC50 (Beta Lactamase): 25.5 µM (inactive)

O=[N+]([O-])c1ccc(O)c2ncccc12 [NITROXOLINE]
IC50 [5]: > 10 µM (inactive)
AC50 [6]: 11.5 µM (active)
IC50 [7]: 0.71 µM (active)
IC50 [8]: > 20 µM (inactive)
IC50 [9]: 0.375 µM (active)
IC50 [10]: 0.605 µM (active)
EC50 (BJ [11]): 16.7 µM (inconclusive)
IC50 [12]: 8.96 µM (active)
AC50 [13]: 48.7 µM (active)
IC50 [14]: 0.684 µM (active)
IC50 [15]: 1.38 µM (active)
EC50 (BJ [16]): 28.8 µM (active)
EC50 [17]: 0.161 µM (active)
IC50 [18]: 0.921 µM (active)
IC50 (Nonstructural protein 1): 4.72 µM (active)
EC50 (BJ [19]): 9.44 µM (active)
IC50 [20]: 1.7 µM (active)
AC50 [21]: 0.996 µM (active)
AC50 [22]: 12.1 µM (active)
AC50 [23]: 9.95 µM (active)
AC50 [24]: 9.7 µM (active)
CC50 [25]: 5.53 µM (active)
EC50 (Protein RecA): 14.4 µM (active)
AC50 (Caspase-6): 14.9 µM (active)
EC50 [26]: 16.6 µM (active)
EC50 [27]: 9.52 µM (inconclusive)
AC50 [28]: 54.9 µM (active)
IC50 [29]: > 20 µM (inactive)
